Data as given in patent publication US20240368151A1, “NOVEL ERGOLINES AND METHODS OF TREATING MOOD DISORDERS” (priority 2021, published 2024).

How the values were obtained:
5-HT2B receptor = 5-HT2B receptor (Homo sapiens (Human), UniProt P41595); assay: FLIPR Ca^2+ flux agonist assay at 5-HT2B; assay type: cell-based; details: HEK293
In short: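 Agonist-induced calcium flux was measured on FLIPR Tetra in stable HEK293 cells for 5-HT2A and 5-HT2B, and in stable CHO cells for 5-HT1A. Cells were loaded with Fluo-4 Direct dye and 2.5 mM probenecid for 50 min at 37 °C before compound addition and fluorescence reading.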

human 5-HT2C receptor = human 5-HT2C receptor (Homo sapiens (Human), UniProt P28335); assay type: cell-based; details: Ca^2+ flux
5-HT1A receptor = 5-HT1A receptor (Homo sapiens (Human), UniProt P08908); assay: FLIPR Ca^2+ flux agonist assay at 5-HT1A; assay type: cell-based; details: CHO cells
5-HT1B receptor = 5-HT1B receptor (Homo sapiens (Human), UniProt P28222); assay: cAMP accumulation agonist assay at 5-HT1B; assay type: cell-based
In short: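 Stably transfected cells expressing human 5-HT1B were incubated with compound for 60 min at RT to measure agonist-driven cAMP accumulation. Detection reagent was then added for another 60 min at RT, with 800 nM cAMP standard in blank wells, and plates were read on a multilabel reader.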

C57BL/6 mice = assay: Mouse head twitch response (HTR) assay; assay type: in vivo; details: SC; for head twitch response (HTR), in words: mice; for head twitch response (HTR), in words / # HTR at Most Efficacious Dose / Emax (95% CI): 20 min observation; for Most Efficacious Dose / # HTR at Most Efficacious Dose / Emax (95% CI): mouse HTR; for Emax (95% CI): curve fit
Description: Agonists of the 5-HT2A receptor are well known to induce this effect in rodents and the potency of this HTR is correlated with hallucinogenic potency in humans.
Animals. Adult male C57BL/6 mice, aged 6-8 weeks (body weight 20-25 g) were used in this experiment. Animals were housed under controlled temperatures and 12-hour light/dark cycles (lights on between 07:00-19:00 h), with ad libitum food and water. This study was carried out in strict accordance with the requirements of the Committee for the Purpose of Control and Supervision of Experiments on Animals (CPCSEA), India. All efforts were made to minimize suffering.
Drugs and Drug Administration. Compound 1 was synthesized as described above. It was administered subcutaneously (SC) dissolved in saline vehicle at a volume of 10 mL/kg. Five doses were tested, with n=6 animals/group. Doses were calculated on the basis of the freebase.
Procedure. Mice were administered one dose of the drug and immediately placed into a small open field for behavioral observation. Animals were observed continuously for 20 mins and the number of head twitches (HTs) were counted by an observer blind to the treatment condition.
Statistical Analysis. The data points shown are the mean±standard error of the mean (SEM). Analysis was performed using GraphPad Prism 6. Curves were fit using a non-linear gaussian distribution to calculate ED50 and Emax values.
Additional disclosed compounds were tested in the mouse head twitch response (HTR) assay according to the procedure described in Example 34. […] Lastly, compounds with much larger benzyl and phenethyl substituents on the amine nitrogen (e.g., 10 and 11) were low efficacy in this assay, consistent with their lower maximal efficacy in the arrestin functional assay (see Example 32).

Sprague Dawley rats = assay: Forced swim test (FST) in rats; assay type: in vivo, rat; details: for Time Immobile / efficacy in FST relative to positive control desipramine, in words: rat FST; for Time Immobile: 23.5 hours after a single dose; for efficacy in FST relative to positive control desipramine, in words: 0.032 mg/kg
Description: Compound 1 induced antidepressant-like effects in the forced swim test (FST) in rats with a 23.5-h pre-treatment time (FIG. 2).
Animals. Male Sprague Dawley rats, aged 9-10 weeks, were used in this experiment. Animals were housed in groups of 2 under controlled temperature (22±3° C.) and relative humidity (30-70%) conditions, with 12-hour light/dark cycles, and with ad libitum food and water. This study was carried out in strict accordance with the requirements of the Committee for the Purpose of Control and Supervision of Experiments on Animals (CPCSEA), India. All efforts were made to minimize suffering.
Drugs and Drug Administration. Compound 1 was synthesized as described above. Desipramine HCl was commercially obtained. The test compound, saline vehicle, and the positive control desipramine were administered subcutaneously (SC), with doses calculated based on the freebase. Normal saline was used as the vehicle. All compounds were administered at a volume of 5 mL/kg. The test compound and vehicle were administered 0.5 h after the start of the training swim (Swim 1) and 23.5 h before the test swim (Swim 2). Desipramine was administered 3 times, at 23.5 h, 5 h, and 1 h before the test swim (Swim 2), each time at a dose of 20 mg/kg. Group size was n=10 per treatment.
Forced Swim Test (FST). […] Rats were handled for about 2 min daily for the 5 days prior to the beginning of the experimental procedure. On the first day of the experiment (i.e., Day 0), post randomization, training swim sessions (Swim 1) were conducted between 12:00 and 18:00 h with all animals by placing rats in individual glass cylinders (46 cm tall×20 cm in diameter) containing 23-25° C. water 30 cm deep for 15 minutes. At the conclusion of Swim 1, animals were dried with paper towels, placed in heated drying cages for 15 minutes, and then returned to their home cages. Animals were then administered the appropriate drug or vehicle treatment(s), as described above. For clarity, a compound administration time of 23.5 h before Swim 2 means 0.5 h after the start of Swim 1 and 0.25 h after the completion of Swim 1 (i.e., immediately after return to the home cage). On Day 1 (i.e., 24 h after start of Swim 1), animals performed the test swim (Swim 2) for a period of 5 min but otherwise under the same conditions as Swim 1. During all swim sessions, the water was changed between each animal.
Behavioral scoring was conducted by observers who were blind to the treatment groups. Animals were continuously observed during Swim 2 and the total time spent engaging in the following behaviors was recorded: immobile, swimming, and climbing. A rat was judged to be immobile when it remained floating in the water without struggling and was making only those movements necessary to keep its head above water. A rat was judged to be swimming when it made active swimming motions, more than necessary to merely maintain its head above water (e.g., moving around in the cylinder). A rat was judged to be climbing when it made active movements with its forepaws in and out of the water, usually directed against the walls.
Statistical Analysis. The data points shown represent the mean±standard error of the mean (SEM). Analysis was performed using GraphPad Prism 6. Comparisons between groups were performed using the one-way analysis of variance (ANOVA), followed by Dunnett's test for comparisons to vehicle.
Additional disclosed compounds were tested in the forced swim test (FST) in rats according to the procedure described in Example 35.

5-HT2B receptor, sequence (P41595 whole entry, looked up): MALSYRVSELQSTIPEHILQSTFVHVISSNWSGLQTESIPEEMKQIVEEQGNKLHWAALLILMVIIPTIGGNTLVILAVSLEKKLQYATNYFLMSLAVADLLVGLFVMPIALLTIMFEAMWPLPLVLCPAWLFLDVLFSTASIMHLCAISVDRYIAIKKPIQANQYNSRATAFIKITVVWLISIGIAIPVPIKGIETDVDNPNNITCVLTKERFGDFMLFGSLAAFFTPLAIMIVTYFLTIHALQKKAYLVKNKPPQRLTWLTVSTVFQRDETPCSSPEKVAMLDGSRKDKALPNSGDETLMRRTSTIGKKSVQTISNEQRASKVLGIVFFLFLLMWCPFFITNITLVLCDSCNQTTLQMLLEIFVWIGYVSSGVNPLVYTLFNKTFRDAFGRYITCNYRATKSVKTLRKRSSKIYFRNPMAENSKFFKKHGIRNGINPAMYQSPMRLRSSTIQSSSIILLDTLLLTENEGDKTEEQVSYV
human 5-HT2C receptor, sequence (P28335 33-458 limits assumed): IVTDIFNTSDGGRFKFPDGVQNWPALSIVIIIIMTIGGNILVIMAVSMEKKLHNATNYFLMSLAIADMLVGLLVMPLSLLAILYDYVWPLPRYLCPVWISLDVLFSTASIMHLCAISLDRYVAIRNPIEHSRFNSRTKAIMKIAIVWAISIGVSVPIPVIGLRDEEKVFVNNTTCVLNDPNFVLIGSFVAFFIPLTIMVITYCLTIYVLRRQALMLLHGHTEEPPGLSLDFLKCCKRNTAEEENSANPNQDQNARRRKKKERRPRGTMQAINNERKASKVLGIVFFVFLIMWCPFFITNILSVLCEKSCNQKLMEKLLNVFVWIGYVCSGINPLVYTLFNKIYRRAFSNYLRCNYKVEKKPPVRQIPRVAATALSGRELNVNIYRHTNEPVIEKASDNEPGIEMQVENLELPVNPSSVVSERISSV
5-HT1B receptor, sequence (P28222 whole entry, looked up): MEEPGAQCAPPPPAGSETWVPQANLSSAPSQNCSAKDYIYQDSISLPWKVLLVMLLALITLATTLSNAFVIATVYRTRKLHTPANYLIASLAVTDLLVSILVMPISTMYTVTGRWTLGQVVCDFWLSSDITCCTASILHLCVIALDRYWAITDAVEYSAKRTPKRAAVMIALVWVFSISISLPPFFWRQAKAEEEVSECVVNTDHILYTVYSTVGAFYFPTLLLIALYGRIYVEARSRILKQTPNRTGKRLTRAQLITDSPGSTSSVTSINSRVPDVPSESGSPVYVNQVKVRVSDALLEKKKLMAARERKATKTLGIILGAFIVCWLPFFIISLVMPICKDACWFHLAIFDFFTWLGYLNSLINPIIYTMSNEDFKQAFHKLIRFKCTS

| SMILES | 5-HT2B % Act @ Max Dose (5-HT2B receptor) [%] | 5-HT2C % Act @ Max Dose (human 5-HT2C receptor) [%] | 5-HT1A % Act @ Max Dose (5-HT1A receptor) [%] | 5-HT1B % Act @ Max Dose (5-HT1B receptor) [%] | head twitch response (HTR), in words (C57BL/6 mice) | Most Efficacious Dose (C57BL/6 mice) | # HTR at Most Efficacious Dose (C57BL/6 mice) | Emax (95% CI) (C57BL/6 mice) | Time Immobile (Sprague Dawley rats; 0.032 mg/kg SC) [s] | Time Immobile (Sprague Dawley rats; 0.32 mg/kg SC) [s] | immobility time relative to vehicle control, in words (Sprague Dawley rats; rats, SC, 23.5 hours after a single administration) | efficacy in FST relative to positive control desipramine, in words (Sprague Dawley rats; SC) | Time Immobile (Sprague Dawley rats; 0.01 mg/kg SC) [s] |
| --- | --- | --- | --- | --- | --- | --- | --- | --- | --- | --- | --- | --- | --- |
| CCCN1C[C@H](C(=O)N(CC)CC)C=C2c3cccc4[nH]cc(c34)C[C@H]21 [Compound 1, (6aR,9R)-N,N-diethyl-7-propyl-4,6,6a,7,8,9-hexahydroindolo[4,3-fg]quinoline-9-carboxamide] | 103.75 | 106.79 | 95.6 | 96.6 | induced a robust and dose-dependent HTR | (1 mg/kg) | 19.5 | 21.63 | 161.6 | 68.2 | reduced immobility time |  |  |
| CCN(CC)C(=O)[C@@H]1C=C2c3cccc4[nH]cc(c34)C[C@H]2N(CCc2ccccc2OC)C1 [Compound 11, (6aR,9R)-N,N-diethyl-7-(2-methoxyphenethyl)-4,6,6a,7,8,9-hexahydroindolo[4,3-fg]quinoline-9-carboxamide] | 2.5 | 107.89 | 57.91 | 47.01 | low efficacy | (3.2 mg/kg) | 12.0 | 19.79 |  |  |  |  |  |
| CCN(CC)C(=O)[C@@H]1C=C2c3cccc4[nH]cc(c34)C[C@H]2N(Cc2ccccc2OC)C1 [Compound 10, (6aR,9R)-N,N-diethyl-7-(2-methoxybenzyl)-4,6,6a,7,8,9-hexahydroindolo[4,3-fg]quinoline-9-carboxamide] | 2.005 | 13.417 | 52.96 | 87.29 | low efficacy | (3.2 mg/kg) | 6.5 | 7.749 |  |  |  |  |  |
| CCCN1C[C@H](C(=O)N[C@H](C)CC)C=C2c3cccc4[nH]cc(c34)C[C@H]21 [Compound 3, (6aR,9R)-N-((R)-sec-butyl)-7-propyl-4,6,6a,7,8,9-hexahydroindolo[4,3-fg]quinoline-9-carboxamide] | 94.11 | 119.49 | 107.6 | 98.66 |  | (0.32 mg/kg) | 27.0 | 25.56 | 137.5 | 50.4 |  |  |  |
| CCN(CC)C(=O)[C@@H]1C=C2c3cccc4[nH]cc(c34)C[C@H]2N(CCCF)C1 [Compound 2, (6aR,9R)-N,N-diethyl-7-(3-fluoropropyl)-4,6,6a,7,8,9-hexahydroindolo[4,3-fg]quinoline-9-carboxamide] | 101.16 | 105.48 | 92.42 | 89.97 |  | (0.32 mg/kg) | 21.833 | 20.47 | 76.44 | 41.33 |  | as efficacious as the positive control desipramine |  |
| CCCN1C[C@H](C(=O)N2[C@@H](C)C[C@@H]2C)C=C2c3cccc4[nH]cc(c34)C[C@H]21 [Compound 4, ((2S,4S)-2,4-dimethylazetidin-1-yl)((6aR,9R)-7-propyl-4,6,6a,7,8,9-hexahydroindolo[4,3-fg]quinolin-9-yl)methanone] | 87.46 | 110.845 | 123.1 | 96 | less efficacious than its N-methyl counterpart compound Int11 | (0.1 mg/kg) | 4.667 | 4.034 | 68.89 | 117.9 |  | as efficacious as the positive control desipramine | 110.4 |
| CCCN1C[C@H](C(=O)NC(CC)CC)C=C2c3cccc4[nH]cc(c34)C[C@H]21 [Compound 6, (6aR,9R)-N-(pentan-3-yl)-7-propyl-4,6,6a,7,8,9-hexahydroindolo[4,3-fg]quinoline-9-carboxamide] | 92.93 | 116.77 | 101.82 | 94.62 |  | (1 mg/kg) | 20.5 | 23.06 | 93.6 | 76.6 |  |  |  |
